Measured values published in patent publication US12194019B2, “Compositions and methods for treating pain with wogonin” (BRIGHAM YOUNG UNIVERSITY, priority 2018, dated 2025).
Marks after values point to notes of the source that are not given here.

Key:
[1] = test system: OA mouse model (surgical destabilization of the medial meniscal ligament, DMM); assay: Activity wheel use after DMM surgery, topical wogonin cream (Example 1); assay type: in vivo
Description: The use of wogonin for the treatment of osteoarthritic (OA) pain was investigated. Specifically, the benefit of using small doses of wogonin applied topically in a cream with penetration enhancers was investigated. The cream formulation shown in Table 2 was used in this study.
(§1) An OA mouse model was used to determine the efficacy of wogonin treatment. OA-like disease was induced by surgical destabilization of the medial meniscal ligament (DMM) of laboratory mice. Repair of the knee was assessed using the Modified Mankin Score which is widely accepted as the way to objectively compare OA progression by histological evaluation of a knee joint (See Larkin D J et al., Frontiers in physiology. 2013; 4:121 and Mankin H J. The New England journal of medicine. 1974; 291(24):1285-92). The mice were housed in activity wheel cages linked to a computer for activity tracking throughout the duration of the experiment. Twenty-four hours after surgical intervention the following treatments were applied topically to the affected knee: 0.00000142 g wogonin (500 μM wogonin) (n=6); 0.0000000028 g wogonin (10 μM wogonin) (n=6); and 10 μl vehicle (n=6). Treatment was applied every third day for 28 days.
At day 28 this pattern was repeated.

OA mouse model (DMM) [2] = assay: Modified Mankin score / histological evaluation of knee joint after DMM surgery (Example 1); assay type: in vivo
Description: as §1
(§2) While the wheel use data were encouraging, inhibiting inflammation alone and blocking pain, is insufficient to block the progression of OA. At the conclusion of the experiment (day 28) mice were sacrificed, knees collected, fixed and studied for Modified Mankin score and HtrA1 expression as previously reported in Spencer K MS and Jeffrey Z Kartchner W. Journal of Arthritis. 2015; 04(03). HtrA1 is the first in the biomarker cascade that is associated with OA progression.
(§3) Mouse knee OA was induced by surgical destabilization of the medial meniscal ligament (DMM surgery) and mice were treated with 10 μM of wogonin. Controls were DMM plus vehicle. […] Note the fissure and rough articular cartilage surface (see arrows) in the control knee.

HtrA1 = HtrA1 immunohistochemical staining in knee joints after DMM surgery (Example 1); assay type: in vivo, mouse; details: knees treated with 10 μM wogonin, day 28
Text: as §2, §3

OA mouse model (DMM) [3] = assay: Activity wheel use after DMM surgery, wogonin in DMSO or in cream (Example 2); assay type: in vivo
Description: (§4) A second experiment using small doses of wogonin applied topically either in DMSO or in a cream with penetration enhancers was conducted. In this study, OA was induced by DMM surgery. Twenty four hours after surgery treatment was applied to the affected knee. The treatments included 0.00000142 g wogonin in 10 μl DMSO (500 μM wogonin) applied to the skin at the location of patellar tendon (n=5); 10 μl DMSO applied to the skin at the location of patellar tendon (n=5); 0.0000000028 g wogonin (10 μl G2 Cream E/10 μM wogonin) to the skin at the location of the patellar tendon (n=5). Treatment was applied every third day for 28 days. Immediately after surgery, mice were placed in an activity wheel cage in which wheel use was recorded on a computer. […] At day 28 this pattern was repeated.

OA mouse model (DMM) [4] = assay: Biomarker and Mankin scoring of knees (Example 2); assay type: in vivo; details: 500 μM (DMSO) vs 10 μM (cream) wogonin
Description: as §4
Again, below 1 μM and there would be insufficient wogonin to have an effect. Above 500 μM and there would be too much suppression of inflammation and ceramides. TGF-β1 is inhibited and chondrocytes can't return to homeostasis, […].

[5] = test system: TGF-β1 gene expression in human chondrocytes (TC28a2); assay: qRTPCR of TGF-β1 gene expression in human chondrocytes; assay type: cell-based
Description: Human chondrocytes (TC28a2 Sigma-Aldrich, St. Louis, MO, USA) were cultured in EmbryoMax® DMEM (SLM-120 B Millipore, St. Louis, MO, USA) supplemented with 10% Fetal Calf Serum (F-2442-50 ML Sigma-Aldrich, St. Louis, MO, USA) to 80% confluence. Treatments consisted of: • 1. Untreated plate: Remove old media and replace with 10 mL fresh media. Incubate 4 hours. Remove media, rinse 3× with PBS and collect total RNA according to manufacturer's protocol ([…] ZYMO Research, Irvine, CA, USA). • 2. Treat with 10 μM wogonin (dissolved in DMSO). Remove old media and replace with 10 mL conditioned media containing wogonin. Incubate 4 hours. Remove media, rinse 3× with PBS and collect total RNA according to manufacturer's protocol ([…] ZYMO Research, Irvine, CA, USA). • 3. Treat with 1 ng/mL IL-1β (dissolved in dds water). Remove old media and replace with 10 mL conditioned media containing IL-1β. Incubate 4 hours. Remove media, rinse 3× with PBS and collect total RNA according to manufacturer's protocol ([…] ZYMO Research, Irvine, CA, USA). • 4. Treat with 10 μM wogonin; wait 1 hour and add 1 ng/mL IL-1β, incubate 4 hours. Remove old media and replace with 10 mL conditioned media containing wogonin. Incubate 1 hour. […] Quantitative Real-time Polymerase Chain Reaction (qRTPCR) was performed using the Life Technologies One Step Plus Sequence Detection System and Software (Life Technologies). […]

[6] = test system: BBS 3 gene expression in human chondrocytes (TC28a2); assay: qRTPCR of BBS 3 gene expression in human chondrocytes; assay type: cell-based
Description: Human chondrocytes (TC28a2 Sigma-Aldrich, St. Louis, MO, USA) were cultured in EmbryoMax® DMEM (SLM-120 B Millipore, St. Louis, MO, USA) supplemented with 10% Fetal Calf Serum (F-2442-50 ML Sigma-Aldrich, St. Louis, MO, USA) to 80% confluence. Treatments consisted of: • 1. Untreated plate: Remove old media and replace with 10 mL fresh media. Incubate 4 hours. Remove media, rinse 3× with PBS and collect total RNA according to manufacturer's protocol ([…] ZYMO Research, Irvine, CA, USA). • 2. Treat with 10 μM wogonin (dissolved in DMSO). Remove old media and replace with 10 mL conditioned media containing wogonin. Incubate 4 hours. Remove media, rinse 3× with PBS and collect total RNA according to manufacturer's protocol ([…] ZYMO Research, Irvine, CA, USA). • 3. Treat with 1 ng/mL IL-1β (dissolved in dds water). Remove old media and replace with 10 mL conditioned media containing IL-1β. Incubate 4 hours. Remove media, rinse 3× with PBS and collect total RNA according to manufacturer's protocol ([…] ZYMO Research, Irvine, CA, USA). • 4. Treat with 10 μM wogonin; wait 1 hour and add 1 ng/mL IL-1β, incubate 4 hours. Remove old media and replace with 10 mL conditioned media containing wogonin. Incubate 1 hour. Add 10 μL 1 ng/mL IL-1β. Pipet media up and down in cell culture dish 3× gently to mix. Incubate 4 hours. Remove media, rinse 3× with PBS and collect total RNA according to manufacturer's protocol ([…] ZYMO Research, Irvine, CA, USA). cDNA was made from total RNA according to manufacturer's protocol (1725038 BIO-RAD, Hercules, CA, USA). Quantitative Real-time Polymerase Chain Reaction (qRTPCR) was performed using the Life Technologies One Step Plus Sequence Detection System and Software (Life Technologies). SYBR-green-based PrimeTime assays (IDT) were used to detect human TGF-β1 and BBS 3.

mouse formalin test = details: intraperitoneal injection, 200 mg/kg; cited from earlier work
MMP-3 = details: intra-articular injection, inflammation initiated by IL-1β; cited from earlier work

Compound: COc1c(O)cc(O)c2c(=O)cc(-c3ccccc3)oc12 [Wogonin, 5,7-dihydroxy-8-methoxyflavone]
- Average Wheel Use ([1]; 10 μM wogonin cream topical, Day 7): 12443**
- Average Wheel Use ([1]; 10 μM wogonin cream topical, Day 7, listed as wogonin): significantly higher wheel use than control or vehicle alone
- Average Wheel Use ([1]; 10 μM wogonin cream topical, Day 14): 22000***
- Average Wheel Use ([1]; 10 μM wogonin cream topical, Day 14, listed as wogonin): higher activity wheel use than those receiving 500 μM
- Average Wheel Use ([1]; 10 μM wogonin cream topical, Day 28): 19358**
- Average Wheel Use ([1]; 500 μM wogonin cream topical to knee every third day, Day 7): 12608**
- Average Wheel Use ([1]; 500 μM wogonin cream topical to knee every third day, Day 7, listed as wogonin): significantly higher wheel use than control or vehicle alone
- Average Wheel Use ([1]; 500 μM wogonin cream topical, Day 14): 17910**
- Average Wheel Use ([1]; 500 μM wogonin cream topical, Day 28): 16528*
- OA as measured by Modified Mankin score (OA mouse model (DMM) [2]; 1 μM wogonin applied topically): sufficient to significantly reduce OA
- Benefit in reducing the progression of OA (OA mouse model (DMM) [2]; 10 μM compared to 500 μM wogonin): greater benefit
- Modified Mankin score of OA (OA mouse model (DMM) [2]; 10 μM wogonin topical vs DMM plus vehicle, day 28): statistically (p>0.05) lower
- Effect on inflammation and biomarkers (OA mouse model (DMM) [2]; dosages above 500 μM wogonin): too much suppression of inflammation and biomarkers
- Effect on OA (OA mouse model (DMM) [2]; dosages below 1 μM wogonin): insufficient to have an effect
- Articular cartilage surface (histology) (OA mouse model (DMM) [2]; knees treated with 10 μM wogonin, day 28): essentially normal
- Expression of HtrA1 (immunohistochemical staining) (HtrA1): essentially absent
- Average (activity wheel use) (OA mouse model (DMM) [3]; 500 μM wogonin in 10 μl DMSO topical, Day 7, listed as Wogonin + DMSO): 12608*
- Average (activity wheel use) (OA mouse model (DMM) [3]; 500 μM wogonin in 10 μl DMSO topical, Day 7, listed as wogonin in DMSO): significantly higher wheel use than DMSO only
- Average (activity wheel use) (OA mouse model (DMM) [3]; 500 μM wogonin in DMSO topical, Day 14, listed as DMSO+wogonin): no difference
- Average (activity wheel use) (OA mouse model (DMM) [3]; 500 μM wogonin in DMSO topical, Day 14, listed as Wogonin + DMSO): 15191
- Average (activity wheel use) (OA mouse model (DMM) [3]; 500 μM wogonin in DMSO topical, Day 28): 15492
- Biomarker and Mankin scoring of knees (OA mouse model (DMM) [4]): higher dose of wogonin is beneficial initially but the lower dose remained beneficial throughout the experiment
- Drop in gene expression of TGF-β1 ([5]; 10 μM wogonin pre-treatment 1 hour, then 1 ng/mL IL-1β 4 hours): < 40%
- Lowering of the wogonin response (BBS 3 gene expression) by IL-1β ([6]; 10 μM wogonin pre-treatment, then 1 ng/mL IL-1β): almost half
- Increase in gene expression of BBS 3 ([6]; 10 μM wogonin, 4 hours): 125%
- Increase in BBS 3 expression ([6]; wogonin, human chondrocytes): 1.25 fold
- Pain symptoms in mouse formalin test (mouse formalin test): improvement of pain symptoms
- MMP-3 expression in articular cartilage (MMP-3): decreased MMP-3 expression

Compound: IL-1β: pro-inflammatory cytokine used at 1 ng/mL to treat human chondrocytes [reference compound]
- Drop in gene expression of TGF-β1 ([5]; 1 ng/mL IL-1β, 4 hours, vs untreated): 80%
- Effect on BBS 3 gene expression ([6]; 1 ng/mL IL-1β alone, 4 hours): no effect
